Values of other authors in US20110311626A1, “CONTROLLED RELEASE COMPOSITIONS COMPRISING ANTI-CHOLINERGIC DRUGS” (priority 2009, published 2011).

Conditions: currently marketed formulation, blood plasma, after administration

For CCN(CC)CCOC(=O)C1(C2CCCCC2)CCCCC1 [dicyclomine, bicyclohexyl-1-carboxylic acid, 2-(diethylamino) ethyl ester], the Tmax is listed as 1.5 to 3 h.
